In patent US9096589B2, “Heteroaromatic phenylimidazole derivatives as PDE10A enzyme inhibitors” (H. Lundbeck A/S, priority 2009, dated 2015) one finds IC50 data, which are given here for 33 molecules.

The structures appear in SMILES notation.

Sequence of PDE10A (Q9Y233 716-1055): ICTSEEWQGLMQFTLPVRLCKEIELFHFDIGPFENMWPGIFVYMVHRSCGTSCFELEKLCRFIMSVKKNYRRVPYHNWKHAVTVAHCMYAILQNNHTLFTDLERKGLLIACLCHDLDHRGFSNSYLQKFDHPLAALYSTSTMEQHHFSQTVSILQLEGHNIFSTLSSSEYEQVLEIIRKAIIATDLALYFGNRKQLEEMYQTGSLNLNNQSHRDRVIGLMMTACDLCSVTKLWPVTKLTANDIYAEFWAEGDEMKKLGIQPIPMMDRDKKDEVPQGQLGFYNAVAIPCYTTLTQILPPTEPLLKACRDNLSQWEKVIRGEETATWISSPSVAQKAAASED

The experiment addresses PDE10A (Homo sapiens (Human), UniProt Q9Y233). Nature of the experiment: PDE10A inhibition assay. It is filed as biochemical. The method, then:
Active PDE10A enzyme is prepared in a number of ways for use in PDE assays (Loughney, K. et al. Gene 1999, 234, 109-117; Fujishige, K. et al. Eur J. Biochem. 1999, 266, 1118-1127 and Soderling, S. et al. Proc. Natl. Acad. Sci. 1999, 96, 7071-7076). PDE10A can be expressed as full-length proteins or as truncated proteins, as long as they express the catalytic domain. PDE10A can be prepared in different cell types, for example insect cells or E. coli. An example of a method to obtain catalytically active PDE10A is as follows: The catalytic domain of human PDE10A (amino acids 440-779 from the sequence with accession number NP 006652) is amplified from total human brain total RNA by standard RT-PCR and is cloned into the BamH1 and Xho1 sites of the pET28a vector (Novagen). Expression in coli is performed according to standard protocols. Briefly, the expression plasmids are transformed into the BL21(DE3) E. coli strain, and 50 mL cultures inoculated with the cells allowed to grow to an OD600 of 0.4-0.6 before protein expression is induced with 0.5 mM IPTG. Following induction, the cells are incubated overnight at room temperature, after which the cells are collected by centrifugation. Cells expressing PDE10A are resuspended in 12 mL (50 mM TRIS-HCl-pH8.0, 1 mM MgCl2 and protease inhibitors). The cells are lysed by sonication, and after all cells are lysed, TritonX100 is added according to Novagen protocols.
A PDE10A assay may for example, be performed as follows: The assay is performed in 60 uL samples containing a fixed amount of the relevant PDE enzyme (sufficient to convert 20-25% of the cyclic nucleotide substrate); a buffer (50 mM HEPES7.6; 10 mM MgCl2; 0.02% Tween20), 0.1 mg/ml BSA, 225 pCi of ^3H-labelled cyclic nucleotide substrate, tritium labeled cAMP to a final concentration of 5 nM and varying amounts of inhibitors. Reactions are initiated by addition of the cyclic nucleotide substrate, and reactions are allowed to proceed for one hr at room temperature before being terminated through mixing with 15 uL 8 mg/mL yttrium silicate SPA beads (Amersham). The beads are allowed to settle for one hr in the dark before the plates are counted in a Wallac 1450 Microbeta counter. The measured signal can be converted to activity relative to an uninhibited control (100%) and IC50 values can be calculated using the Xlfit extension to EXCEL.
For `Cc1cc(C)n2nc(CCc3nc(-c4ccc(C)o4)cn3C)nc2n1` [5,7-Dimethyl-2-{2-[1-methyl-4-(5-methyl-furan-2-yl)-1H-imidazol-2-yl]-ethyl}-[1,2,4]triazolo[1,5-a]pyrimidine], the IC50 (usually the point on the concentration scale where inhibition reaches its midpoint) was 38 nM. The same measure for `Cc1cc(C)n2cc(CCc3nc(-c4cccs4)cn3COCC[Si](C)(C)C)nc2n1` [5,7-Dimethyl-2-{2-[4-thiophen-2-yl-1-(2-trimethylsilanyl-ethoxymethyl)-1H-imidazol-2-yl]-ethyl}-imidazo[1,2-a]pyrimidine]: 9.6 nM. The same measure for `Cc1cc(C)n2cc(/C=C/c3nc(-c4cccs4)cn3COCC[Si](C)(C)C)nc2n1` [5,7-Dimethyl-2-{(E)-2-[4-thiophen-2-yl-1-(2-trimethylsilanyl-ethoxymethyl)-1H-imidazol-2-yl]-vinyl}-imidazo[1,2-a]pyrimidine]: 81 nM; for `Cc1ncc(C)n2nc(CCc3nc(-c4cnccn4)cn3C)nc12` [5,8-Dimethyl-2-[2-(1-methyl-4-pyrazin-2-yl-1H-imidazol-2-yl)-ethyl]-[1,2,4]triazolo[1,5-a]pyrazine]: 0.52 nM. The same measure for `Cc1ncc(C)n2nc(CCc3nc(-c4cccnc4)cn3C)nc12` [5,8-Dimethyl-2-[2-(1-methyl-4-pyridin-3-yl-1H-imidazol-2-yl)-ethyl]-[1,2,4]triazolo[1,5-a]pyrazine]: 8.9 nM. In turn, `Cc1ccc(C)n2nc(CCc3nc(-c4cccnc4)cn3C)nc12` [5,8-Dimethyl-2-[2-(1-methyl-4-pyridin-3-yl-1H-imidazol-2-yl)-ethyl]-[1,2,4]triazolo[1,5-a]pyridine] returned an IC50 of 5.7 nM. The same measure for `Cc1ncc(C)n2nc(CCc3nc(-c4ccncc4)cn3C)nc12` [5,8-Dimethyl-2-[2-(1-methyl-4-pyridin-4-yl-1H-imidazol-2-yl)-ethyl]-[1,2,4]triazolo[1,5-a]pyrazine]: 0.55 nM. `Cc1ncc(C)n2nc(CCc3nc(-c4cncnc4)cn3C)nc12` [5,8-Dimethyl-2-[2-(1-methyl-4-pyrimidin-5-yl-1H-imidazol-2-yl)-ethyl]-[1,2,4]triazolo[1,5-a]pyrazine] had an IC50 of 0.44 nM.

Consider `Cc1ncc(C)n2nc(CCc3nc(-c4nccs4)cn3C)nc12` [5,8-Dimethyl-2-[2-(1-methyl-4-thiazol-2-yl-1H-imidazol-2-yl)-ethyl]-[1,2,4]triazolo[1,5-a]pyrazine], for which the IC50 turned out to be 2.7 nM.

Molecule `Cc1ccc(C)n2nc(CCc3nc(-c4nccs4)cn3C)nc12` [5,8-Dimethyl-2-[2-(1-methyl-4-thiazol-2-yl-1H-imidazol-2-yl)-ethyl]-[1,2,4]triazolo[1,5-a]pyridine] showed an IC50 of 2.3 nM. The same measure for `Cc1ncc(C)n2nc(CCc3nc(-c4cscn4)cn3C)nc12` [5,8-Dimethyl-2-[2-(1-methyl-4-thiazol-4-yl-1H-imidazol-2-yl)-ethyl]-[1,2,4]triazolo[1,5-a]pyrazine]: 1.29 nM. Regarding `Cc1ccc(C)n2nc(CCc3nc(-c4cscn4)cn3C)nc12` [5,8-Dimethyl-2-[2-(1-methyl-4-thiazol-4-yl-1H-imidazol-2-yl)-ethyl]-[1,2,4]triazolo[1,5-a]pyridine], the IC50 was 0.4 nM. Regarding `Cc1ncc(C)n2nc(CCc3nc(-c4cncs4)cn3C)nc12` [5,8-Dimethyl-2-[2-(1-methyl-4-thiazol-5-yl-1H-imidazol-2-yl)-ethyl]-[1,2,4]triazolo[1,5-a]pyrazine], the IC50 is 6.9 nM. The result for `Cc1ncc(C)n2nc(CCc3nc(-c4cccs4)cn3C)nc12` [5,8-Dimethyl-2-[2-(1-methyl-4-thiophen-2-yl-1H-imidazol-2-yl)-ethyl]-[1,2,4]triazolo[1,5-a]pyrazine] reads 0.39 nM; that for `Cc1ccc(C)n2nc(CCc3nc(-c4cccs4)cn3C)nc12` [5,8-Dimethyl-2-[2-(1-methyl-4-thiophen-2-yl-1H-imidazol-2-yl)-ethyl]-[1,2,4]triazolo[1,5-a]pyridine], 1 nM.

Consider `Cc1ccc(-c2cn(C)c(CCc3nc4c(C)ncc(C)n4n3)n2)o1` [5,8-Dimethyl-2-{2-[1-methyl-4-(5-methyl-furan-2-yl)-1H-imidazol-2-yl]-ethyl}-[1,2,4]triazolo[1,5-a]pyrazine], for which the IC50 was 6.8 nM.

`Cc1ccc(-c2cn(C)c(CCc3nc4c(C)ccc(C)n4n3)n2)o1` [5,8-Dimethyl-2-{2-[1-methyl-4-(5-methyl-furan-2-yl)-1H-imidazol-2-yl]-ethyl}-[1,2,4]triazolo[1,5-a]pyridine] registered an IC50 of 4.2 nM. This IC50 lies about 1.6-fold lower than the previous one.

For `Cc1cccc2nc(CCc3nc(-c4cccnc4)cn3C)nn12` [5-Methyl-2-[2-(1-methyl-4-pyridin-3-yl-1H-imidazol-2-yl)-ethyl]-[1,2,4]triazolo[1,5-a]pyridine], the IC50 turned out to be 71 nM. Molecule `Cc1cccc2nc(CCc3nc(-c4cncs4)cn3C)nn12` [5-Methyl-2-[2-(1-methyl-4-thiazol-5-yl-1H-imidazol-2-yl)-ethyl]-[1,2,4]triazolo[1,5-a]pyridine] came in with an IC50 of 39 nM. Compared with the last molecule, the IC50 is about 1.8-fold lower. In turn, `Cc1cccc2nc(CCc3nc(-c4cccs4)cn3C)nn12` [5-Methyl-2-[2-(1-methyl-4-thiophen-2-yl-1H-imidazol-2-yl)-ethyl]-[1,2,4]triazolo[1,5-a]pyridine] gave an IC50 of 9.2 nM. The same measure for `CCCn1cc(-c2cccnc2)nc1CCc1nc2cccc(C)n2n1` [5-Methyl-2-[2-(1-propyl-4-pyridin-3-yl-1H-imidazol-2-yl)-ethyl]-[1,2,4]triazolo[1,5-a]pyridine]: 49 nM; for `Cc1cccc2nc(CCc3nc(-c4cccnc4)c[nH]3)nn12` [5-Methyl-2-[2-(4-pyridin-3-yl-1H-imidazol-2-yl)-ethyl]-[1,2,4]triazolo[1,5-a]pyridine]: 9.6 nM. The same measure for `Cc1cccc2nc(CCc3nc(-c4cccs4)c[nH]3)nn12` [5-Methyl-2-[2-(4-thiophen-2-yl-1H-imidazol-2-yl)-ethyl]-[1,2,4]triazolo[1,5-a]pyridine]: 0.54 nM; for `Cc1cccc2nc(CCc3nc(-c4ccsc4)c[nH]3)nn12` [5-Methyl-2-[2-(4-thiophen-3-yl-1H-imidazol-2-yl)-ethyl]-[1,2,4]triazolo[1,5-a]pyridine]: 5.7 nM; for `Cc1cscc1-c1c[nH]c(CCc2nc3cccc(C)n3n2)n1` [5-Methyl-2-{2-[4-(4-methyl-thiophen-3-yl)-1H-imidazol-2-yl]-ethyl}-[1,2,4]triazolo[1,5-a]pyridine]: 45 nM. The result for `Cc1ccc(-c2c[nH]c(CCc3nc4cccc(C)n4n3)n2)o1` [5-Methyl-2-{2-[4-(5-methyl-furan-2-yl)-1H-imidazol-2-yl]-ethyl}-[1,2,4]triazolo[1,5-a]pyridine] reads 34 nM; that for `Cc1ccc(-c2cn(COCC[Si](C)(C)C)c(/C=C/c3nc4cccc(C)n4n3)n2)s1` [5-Methyl-2-{(E)-2-[4-(5-methyl-thiophen-2-yl)-1-(2-trimethylsilanyl-ethoxymethyl)-1H-imidazol-2-yl]-vinyl}-[1,2,4]triazolo[1,5-a]pyridine], 210 nM; that for `Cn1cc(-c2cccs2)nc1CCc1nc2c(F)cccn2n1` [8-Fluoro-2-[2-(1-methyl-4-thiophen-2-yl-1H-imidazol-2-yl)-ethyl]-[1,2,4]triazolo[1,5-a]pyridine], 47 nM. `Cn1cc(-c2cncs2)nc1/C=C/c1nc2c(F)cccn2n1` [8-Fluoro-2-[(E)-2-(1-methyl-4-thiazol-5-yl-1H-imidazol-2-yl)-vinyl]-[1,2,4]triazolo[1,5-a]pyridine] displayed an IC50 of 300 nM. The result for `Cn1cc(-c2cccs2)nc1/C=C/c1nc2c(F)cccn2n1` [8-Fluoro-2-[(E)-2-(1-methyl-4-thiophen-2-yl-1H-imidazol-2-yl)-vinyl]-[1,2,4]triazolo[1,5-a]pyridine] reads 100 nM; that for `Cc1ccc(-c2cn(C)c(CCc3nc4c(F)cccn4n3)n2)o1` [8-Fluoro-2-{2-[1-methyl-4-(5-methyl-furan-2-yl)-1H-imidazol-2-yl]-ethyl}-[1,2,4]triazolo[1,5-a]pyridine], 94 nM. Molecule `Cc1ccc(-c2cn(C)c(/C=C/c3nc4c(F)cccn4n3)n2)o1` [8-Fluoro-2-{(E)-2-[1-methyl-4-(5-methyl-furan-2-yl)-1H-imidazol-2-yl]-vinyl}-[1,2,4]triazolo[1,5-a]pyridine] came in with an IC50 of 520 nM. Compared with the last molecule, the IC50 is about 5.5-fold higher. The result for `COc1cccn2nc(CCc3nc(-c4cncs4)cn3C)nc12` [8-Methoxy-2-[2-(1-methyl-4-thiazol-5-yl-1H-imidazol-2-yl)-ethyl]-[1,2,4]triazolo[1,5-a]pyridine] reads 36 nM.
